Publication PMC10967822, “Antimicrobial Indole-3-Carboxamido-Polyamine Conjugates Target Bacterial Membranes and Are Antibiotic Potentiators” (Biomolecules, 2024)
≈ marks a conversion by molar mass, not a printed value. Like-named read-outs stand apart in the source and are kept apart here.

Assays:
[1] = system: S. aureus ATCC 25923; assay: MIC, broth dilution, S. aureus; assay type: cell-based, Staphylococcus aureus; conditions: Staphylococcus aureus, ATCC25923; S. aureus ATCC 25923, 18 h; read-out: MIC Sa
[2] = system: P. aeruginosa ATCC 27853; assay: Doxycycline potentiation against P. aeruginosa; assay type: cell-based, Pseudomonas aeruginosa; conditions: doxycycline at 2 µg/mL (4.5 µM); for Dox/Pa fold-change (intrinsic MIC / combination MIC): P. aeruginosa ATCC 27853; for Dox/Pa: concentration required to restore doxycycline activity (combination MIC): P. aeruginosa ATCC 27853, mean n = 3
Excerpt: (§1) These measurements were independently repeated in triplicate.

[3] = system: K. pneumoniae ATCC 700603; assay: MIC, broth microdilution (CO-ADD), K. pneumoniae; conditions: top dose 32 µg/mL
[4] = system: E. coli ATCC 25922; assay: Erythromycin potentiation against E. coli; assay type: cell-based, Escherichia coli; conditions: erythromycin at 2 µg/mL (2.7 µM); for Erythro/Ec fold-change (intrinsic MIC / combination MIC): E. coli; for Erythro/Ec: concentration required to restore erythromycin activity (combination MIC): mean n = 3
Excerpt: as §1

[5] = system: human red blood cells; assay: Hemolytic assay; assay type: cell-based; conditions: 10% hemolytic activity, mean n = 2
Protocol: Human whole blood was washed three times with three volumes of 0.9% NaCl and then resuspended in the same solution to a concentration of 0.5 × 10^8 cells/mL, as determined by the manual cell count in a Neubauer hemocytometer. The washed cells were then added to the 384-well compound-containing plates for a final volume of 50 μL. After a 10 min shake on a plate shaker, the plates were then incubated for 1 h at 37 °C. After incubation, the plates were centrifuged at 1000× g for 10 min to pellet cells and debris; 25 μL of the supernatant was then transferred to a polystyrene 384-well assay plate. Hemolysis was determined by measuring the supernatant absorbance at […] (OD405). The absorbance was measured using a Tecan M1000 Pro monochromator plate reader. HC10 and HC50 (concentrations at 10% and 50% hemolysis, respectively) were calculated by a curve fitting the inhibition values vs. log (concentration) using a sigmoidal dose–response function with variable fitting values for the top, bottom, and slope.

[6] = system: A. baumannii ATCC 19606; assay: MIC, broth microdilution (CO-ADD), A. baumannii; assay type: cell-based, Acinetobacter baumannii
[7] = system: E. coli ATCC 25922; assay: MIC, broth dilution, E. coli; assay type: cell-based, Escherichia coli; conditions: E. coli ATCC 25922, 18 h
[8] = system: P. aeruginosa ATCC 27853; assay: MIC, broth dilution, P. aeruginosa; assay type: cell-based, Pseudomonas aeruginosa; conditions: P. aeruginosa ATCC 27853, 18 h, read-out: MIC Pa
[9] = system: MRSA ATCC 43300; assay: MIC, broth microdilution (CO-ADD), MRSA; assay type: cell-based, methicillin-resistant S. aureus; conditions: Staphylococcus aureus, read-out: MIC MRSA
[10] = system: C. albicans ATCC 90028; assay: Antifungal MIC (CO-ADD), C. albicans; assay type: cell-based; conditions: Candida albicans, ATCC90028, top dose 32 µg/mL
Protocol: For the antifungal assay, fungi strains were cultured for 3 days on YPD agar at 30 °C. A yeast suspension of 1 × 10^6 to 5 × 10^6 CFU/mL was prepared from five colonies. These stock suspensions were diluted with a yeast nitrogen base (YNB) (Becton Dickinson, 233520, New South Wales, Australia) broth to a final concentration of 2.5 × 10^3 CFU/mL. […] The plates were covered and incubated at 35 °C for 36 h without shaking. C. albicans MICs were determined by measuring the absorbance at OD530. For C. neoformans, resazurin was added at a 0.006% final concentration to each well and incubated for a further 3 h before the MICs were determined by measuring the absorbance at OD570–600. […] Fluconazole was used as a positive fungal inhibitor standard for C. albicans and C. neoformans. […] The quality control (QC) of the assays was determined by the antimicrobial controls and the Z′-factor (using positive and negative controls).

[11] = Cytotoxicity assay (resazurin); assay type: cell-based; conditions: human, HEK293 cells, mean n = 2
[12] = Acinetobacter baumannii, ATCC19606, top dose 32 µg/mL
[13] = Pseudomonas aeruginosa, ATCC27853
[14] = MRSA ATCC 43300, top dose 32 µg/mL

Compound	MIC [1] [µM]	Dox/Pa fold-change (intrinsic MIC / combination MIC) [2] [fold]	Dox/Pa: concentration required to restore doxycycline activity (combination MIC) [2] [µM]	MIC Kp [3] [µM]	Erythro/Ec fold-change (intrinsic MIC / combination MIC) [4] [fold]	Erythro/Ec: concentration required to restore erythromycin activity (combination MIC) [4] [µM]	Hemolysis HC10 [5] [µM]	MIC [6, 12] [µM]	MIC ([7]; Escherichia coli, ATCC25922) [µM]	MIC [8, 13] [µM]	MIC [9, 14] [µM]	MIC [10] [µM]	IC50 at 20 h [11] [µM]	MIC ([6]; top dose 32 µg/mL) [µM]	MIC [7] [µM]	MIC [8] [µM]	MIC [9] [µM]
O=C(N[C@H](CO)[C@H](O)c1ccc([N+](=O)[O-])cc1)C(Cl)Cl [Chloramphenicol, reference compound]	1.5 to 3 (≈ 0.485 to 0.969 µg/mL)	–	–	–	–	–	–	–	–	–	–	–	–	–	–	–	–
O=C(NCCCNCCCCNCCCNC(=O)c1c[nH]c2c(F)cccc12)c1c[nH]c2c(F)cccc12 [Compound 16a]	> 266	1	266	>43	1	> 266	>43	> 43	> 266	266 (≈ 140 µg/mL)	> 43	> 43	> 43	–	–	–	–
O=C(NCCCNCCCCCCNCCCNC(=O)c1c[nH]c2c(F)cccc12)c1c[nH]c2c(F)cccc12 [Compound 16b]	256 (≈ 141 µg/mL)	> 4	64.0	>41	2	128	>41	> 41	256 (≈ 141 µg/mL)	> 256	> 41	> 41	> 41	–	–	–	–
[H]/N=C(/N)N[C@H]1[C@H](O)[C@@H](O)[C@H](O[C@@H]2O[C@@H](C)[C@](O)(C=O)[C@H]2O[C@@H]2O[C@@H](CO)[C@H](O)[C@@H](O)[C@@H]2NC)[C@@H](N/C(N)=N\[H])[C@@H]1O [Streptomycin, reference compound]	21.5 (≈ 12.5 µg/mL)	–	–	–	–	–	–	–	21.5 (≈ 12.5 µg/mL)	21.5 (≈ 12.5 µg/mL)	–	–	–	–	–	–	–
COc1ccc2[nH]cc(C(=O)NCCCNCCCCCCCNCCCNC(=O)c3c[nH]c4ccc(OC)cc34)c2c1.O=C(O)C(F)(F)F.O=C(O)C(F)(F)F [Compound 14c]	122	> 4	61.1	>39	> 1	244	>39	> 39	> 244	> 244	> 39	> 39	> 39	–	–	–	–
COc1cccc2c(C(=O)NCCCNCCCCNCCCNC(=O)c3c[nH]c4c(OC)cccc34)c[nH]c12 [Compound 17a]	129 (≈ 70.8 µg/mL)	> 2	129	>41	1	> 257	>41	> 41	> 257	> 257	20.6 (≈ 11.3 µg/mL)	> 41	> 41	–	–	–	–
COc1ccc2[nH]cc(C(=O)NCCCNCCCCNCCCNC(=O)c3c[nH]c4ccc(OC)cc34)c2c1 [Compound 14a]	257 (≈ 141 µg/mL)	> 4	64.4	>41	1	257	>41	> 41	257 (≈ 141 µg/mL)	> 257	10.3 (≈ 5.65 µg/mL)	> 41	> 41	–	–	–	–
CC[C@H]1OC(=O)[C@H](C)[C@@H](O[C@H]2C[C@@](C)(OC)[C@@H](O)[C@H](C)O2)[C@H](C)[C@@H](O[C@@H]2O[C@H](C)C[C@H](N(C)C)[C@H]2O)[C@](C)(O)C[C@@H](C)C(=O)[C@H](C)[C@@H](O)[C@]1(C)O [erythromycin, reference compound]	–	–	–	–	–	–	–	–	174 (≈ 128 µg/mL)	–	–	–	–	–	–	–	–
COc1cccc2c(C(=O)NCCCNCCCCCCNCCCNC(=O)c3c[nH]c4c(OC)cccc34)c[nH]c12 [Compound 17b]	124 (≈ 71.5 µg/mL)	1	> 248	>40	1	> 248	>40	> 40	248 (≈ 143 µg/mL)	> 248	> 40	> 40	> 40	–	–	–	–
Colistin [reference compound]	–	–	–	0.2	–	–	–	–	–	–	–	–	–	0.2	2	1	–
C[C@H]1c2cccc(O)c2C(=O)C2=C(O)[C@]3(O)C(=O)C(C(N)=O)=C(O)[C@@H](N(C)C)[C@@H]3[C@@H](O)[C@@H]21 [doxycycline, reference compound]	–	–	–	–	–	–	–	–	–	90 (≈ 40 µg/mL)	–	–	–	–	–	–	–
Cc1cccc2c(C(=O)NCCCNCCCCNCCCNC(=O)c3c[nH]c4c(C)cccc34)c[nH]c12 [Compound 18a]	> 269	1	269	>43	1	> 269	>43	> 43	> 269	269 (≈ 139 µg/mL)	21.5 (≈ 11.1 µg/mL)	> 43	> 43	–	–	–	–
CC/C(=C(\c1ccccc1)c1ccc(OCCN(C)C)cc1)c1ccccc1 [tamoxifen, reference compound]	–	–	–	–	–	–	–	–	–	–	–	–	24	–	–	–	–
CN[C@H](CC(C)C)C(=O)N[C@H]1C(=O)N[C@@H](CC(N)=O)C(=O)N[C@H]2C(=O)N[C@H]3C(=O)N[C@H](C(=O)N[C@H](C(=O)O)c4cc(O)cc(O)c4-c4cc3ccc4O)[C@H](O)c3ccc(c(Cl)c3)Oc3cc2cc(c3O[C@@H]2O[C@H](CO)[C@@H](O)[C@H](O)[C@H]2O[C@H]2C[C@](C)(N)[C@H](O)[C@H](C)O2)Oc2ccc(cc2Cl)[C@H]1O [Vancomycin, reference compound]	–	–	–	–	–	–	–	–	–	–	–	–	–	–	–	–	0.7 (≈ 1.01 µg/mL)
